Activity calls are given as the source filed them. Cut-off read from the data, not from the text of the source, for most assays here: actives have a measured EC50 and inactives only a lower limit.
Columns and labels:
[1] = fluconazole-exposed Candida albicans growth modulators – fluorescence, retest, confirmation (AID 2467); format: functional, cell-based
[2] = NIH-3T3 fibroblast cytotoxicity, dose response, cytotoxicity control, cell-based, fluorescence, Alamar Blue, secondary assay (AID 2327); format: functional;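 note: NIH-3T3 mouse fibroblasts cultured with fluconazole at 8 µg/mL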
[3] = tested on: BJ; assay: BJ-TERT fibroblast viability loss – cell-based, RAS-independent, luminescence, dose response (AID 1933); format: functional; settings: Homo sapiens
[4] = DRD fibroblast viability loss – cell-based, non-viral oncogenic, luminescence, dose response (AID 1934); format: functional; settings: Homo sapiens
[5] = tested on: BJ; assay: BJ-TERT-LT-ST fibroblast viability loss – cell-based, RAS-independent, luminescence, dose response (AID 1935); format: functional; settings: Homo sapiens;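 note: BJ fibroblasts immortalized with TERT plus LT and ST oncogenes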
[6] = tested on: BJ; assay: cells; format: functional, cell-based; settings: Homo sapiens
[7] = Luminescence Cell-Based Dose Response HTS to Identify Inhibitors of 5'UTR Stem-Loop Driven Prion Protein mRNA Translation in H4 Neuroglioblastoma Cells. [Related pubchem assays: 1827 (Project Summary), 1813 (Primary HTS)]; format: functional
[8] = alpha-synuclein stem-loop luciferase translation blockers – H4 neuroglioma cells, luminescence, confirmation (AID 1988); format: functional, cell-based
[9] = luciferase reporter signal suppression in cells – H4 neuroglioma cells, luminescence, dose response (AID 1990); format: functional, cell-based
[10] = biological target: T1, Calpain-2 catalytic subunit (Sus scrofa, UniProt P43367); assay: m-calpain protease blockers, concentration series – biochemical, fluorogenic peptide substrate, dose response (AID 1420); format: functional
T1 sequence (P43367 whole entry): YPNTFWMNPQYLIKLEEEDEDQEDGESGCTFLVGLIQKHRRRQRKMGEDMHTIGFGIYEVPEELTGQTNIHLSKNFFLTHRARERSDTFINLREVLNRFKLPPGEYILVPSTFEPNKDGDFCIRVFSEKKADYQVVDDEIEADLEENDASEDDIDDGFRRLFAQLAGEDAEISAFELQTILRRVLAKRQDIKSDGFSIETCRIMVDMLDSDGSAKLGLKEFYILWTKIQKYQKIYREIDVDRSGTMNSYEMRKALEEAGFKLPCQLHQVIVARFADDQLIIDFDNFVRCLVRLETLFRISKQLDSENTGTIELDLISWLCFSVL

[11] = biological target: Luciferin 4-monooxygenase (Photinus pyralis, UniProt P08659); assay: inhibition of purified Photinus pyralis luciferase – biochemical, luminescence, dose response (AID 1891)
[12] = Luminescence Cell-Based Dose Confirmation HTS to Identify Inhibitors of Platelet Dense Granule Release. [Related pubchem assays: 1663 (Primary HTS), 1678 (Summary of Project)]; format: functional
[13] = tested on: H4; assay: Luminescence Cell-Based Dose Response HTS to Identify Activators of 5'UTR Stem-Loop Driven Prion Protein mRNA Translation in H4 Neuroglioblastoma Cells. [Related pubchem assays: 1829 (Project Summary), 1814 (Primary HTS)]; format: functional; settings: Homo sapiens
[14] = Luminescence Cell-Based Dose Response HTS to Identify Activators of Luciferase Translation or Activity in H4 […] Cells. [Related pubchem assays: 1829 (Project Summary), 1814 (Primary HTS)]; format: functional
[15] = biological target: T2, Protein RecA (Mycobacterium tuberculosis, UniProt P9WHJ3); assay: Fluorescence Cell-Free Homogeneous Dose Retest to Identify Inhibitors of RecA-Intein Splicing Activity. [Related pubchem assays (depositor defined):AID2097, AID2223, AID489010, AID492950]; format: functional
T2 sequence (P9WHJ3 whole entry): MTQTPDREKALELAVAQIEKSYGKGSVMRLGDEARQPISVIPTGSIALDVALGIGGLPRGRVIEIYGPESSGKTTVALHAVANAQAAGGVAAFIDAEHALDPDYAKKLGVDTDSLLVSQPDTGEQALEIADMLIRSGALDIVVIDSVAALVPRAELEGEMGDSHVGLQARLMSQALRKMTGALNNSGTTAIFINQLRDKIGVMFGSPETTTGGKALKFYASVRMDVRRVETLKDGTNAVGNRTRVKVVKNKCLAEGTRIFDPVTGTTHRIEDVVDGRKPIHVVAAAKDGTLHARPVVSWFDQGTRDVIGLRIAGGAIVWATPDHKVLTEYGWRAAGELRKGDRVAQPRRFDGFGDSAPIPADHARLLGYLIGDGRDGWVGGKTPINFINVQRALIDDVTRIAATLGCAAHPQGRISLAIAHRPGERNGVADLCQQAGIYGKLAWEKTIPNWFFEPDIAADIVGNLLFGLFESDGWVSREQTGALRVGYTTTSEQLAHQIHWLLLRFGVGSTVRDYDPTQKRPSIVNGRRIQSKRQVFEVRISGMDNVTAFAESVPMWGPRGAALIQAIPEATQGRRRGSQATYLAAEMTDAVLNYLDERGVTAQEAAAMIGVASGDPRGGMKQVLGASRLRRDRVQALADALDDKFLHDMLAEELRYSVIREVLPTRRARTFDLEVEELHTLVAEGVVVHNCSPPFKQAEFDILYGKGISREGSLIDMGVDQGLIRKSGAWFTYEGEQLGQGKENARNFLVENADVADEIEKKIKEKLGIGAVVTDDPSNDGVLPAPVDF

[16] = biological target: T3, Replicative DNA helicase DnaB (Mycobacterium tuberculosis, UniProt P9WMR3); assay: DnaB intein splicing inhibitors, dose response, biochemical, cell-free fluorescence (AID 449749); format: functional
T3 sequence (P9WMR3 whole entry): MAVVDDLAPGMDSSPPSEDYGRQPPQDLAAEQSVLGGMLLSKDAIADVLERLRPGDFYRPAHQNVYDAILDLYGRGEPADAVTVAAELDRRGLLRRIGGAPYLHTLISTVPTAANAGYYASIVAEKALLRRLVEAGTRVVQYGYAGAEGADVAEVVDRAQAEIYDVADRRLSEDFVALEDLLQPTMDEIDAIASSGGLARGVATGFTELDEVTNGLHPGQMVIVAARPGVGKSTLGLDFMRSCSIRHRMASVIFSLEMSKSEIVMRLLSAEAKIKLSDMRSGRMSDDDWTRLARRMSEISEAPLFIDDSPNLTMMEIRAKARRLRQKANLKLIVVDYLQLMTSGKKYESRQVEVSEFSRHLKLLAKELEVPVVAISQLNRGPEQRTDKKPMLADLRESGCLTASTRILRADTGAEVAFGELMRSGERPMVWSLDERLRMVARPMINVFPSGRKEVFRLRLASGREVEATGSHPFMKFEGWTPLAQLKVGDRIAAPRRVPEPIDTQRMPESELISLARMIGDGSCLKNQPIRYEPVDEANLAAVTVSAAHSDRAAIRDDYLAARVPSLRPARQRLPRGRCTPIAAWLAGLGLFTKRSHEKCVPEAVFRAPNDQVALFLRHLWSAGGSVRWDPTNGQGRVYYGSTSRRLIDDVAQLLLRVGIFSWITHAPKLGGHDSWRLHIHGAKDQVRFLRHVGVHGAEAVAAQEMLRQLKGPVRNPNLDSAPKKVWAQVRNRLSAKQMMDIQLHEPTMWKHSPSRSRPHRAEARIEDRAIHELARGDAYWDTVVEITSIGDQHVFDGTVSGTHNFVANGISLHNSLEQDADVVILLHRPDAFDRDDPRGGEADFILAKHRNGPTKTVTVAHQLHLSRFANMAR

[17] = tested on: Streptococcus; assay: GAS UMAA2166 growth inhibition – luminescence, BacTiterGlo, counter-screen for streptokinase expression inhibitor project, dose response (AID 1915); format: functional, organism-based;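 note: potency for reduction of bacterial viability or growth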
[18] = tested on: Streptococcus sp. 'group A'; assay: Streptococcus pyogenes SK(-)GAS viability under kanamycin – luminescence, BacTiterGlo, confirmation, counter-screen for streptokinase expression inhibitor project, dose response (AID 1900); format: functional, organism-based
[19] = tested on: INS1; assay: INS-1E survival protection against cytokine death – cell-based, luminescence, retest, dose response (AID 449756); format: functional; settings: Rattus norvegicus;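 note: cell death triggered by IL-1 beta plus TNF-alpha plus IFN-gamma mixture; protective hits raise ATP signal compared with cytokine alone wells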
[20] = biological target: T4, Streptokinase A (Streptococcus pyogenes serotype M1, UniProt P10520); assay: viability-normalized secreted streptokinase activity reduction – plasminogen activation absorbance, OD405, dose response (AID 1914); format: functional, Streptococcus pyogenes M1 GAS;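 note: secreted streptokinase activity via plasminogen activation per viability signal from cell pellet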
T4 sequence (P10520 whole entry): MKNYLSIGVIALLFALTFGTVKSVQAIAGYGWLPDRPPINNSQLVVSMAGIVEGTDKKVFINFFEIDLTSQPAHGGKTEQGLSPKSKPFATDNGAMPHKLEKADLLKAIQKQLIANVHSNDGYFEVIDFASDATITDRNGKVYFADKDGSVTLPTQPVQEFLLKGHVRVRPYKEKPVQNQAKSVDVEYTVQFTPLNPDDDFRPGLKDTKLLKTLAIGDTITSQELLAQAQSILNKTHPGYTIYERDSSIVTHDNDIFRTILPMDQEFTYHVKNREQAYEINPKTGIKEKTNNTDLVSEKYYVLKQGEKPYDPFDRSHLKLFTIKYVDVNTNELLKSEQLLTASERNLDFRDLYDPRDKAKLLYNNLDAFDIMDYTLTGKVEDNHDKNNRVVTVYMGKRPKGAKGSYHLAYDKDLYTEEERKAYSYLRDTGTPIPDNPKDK

Chain of Luciferin 4-monooxygenase (P08659 whole entry): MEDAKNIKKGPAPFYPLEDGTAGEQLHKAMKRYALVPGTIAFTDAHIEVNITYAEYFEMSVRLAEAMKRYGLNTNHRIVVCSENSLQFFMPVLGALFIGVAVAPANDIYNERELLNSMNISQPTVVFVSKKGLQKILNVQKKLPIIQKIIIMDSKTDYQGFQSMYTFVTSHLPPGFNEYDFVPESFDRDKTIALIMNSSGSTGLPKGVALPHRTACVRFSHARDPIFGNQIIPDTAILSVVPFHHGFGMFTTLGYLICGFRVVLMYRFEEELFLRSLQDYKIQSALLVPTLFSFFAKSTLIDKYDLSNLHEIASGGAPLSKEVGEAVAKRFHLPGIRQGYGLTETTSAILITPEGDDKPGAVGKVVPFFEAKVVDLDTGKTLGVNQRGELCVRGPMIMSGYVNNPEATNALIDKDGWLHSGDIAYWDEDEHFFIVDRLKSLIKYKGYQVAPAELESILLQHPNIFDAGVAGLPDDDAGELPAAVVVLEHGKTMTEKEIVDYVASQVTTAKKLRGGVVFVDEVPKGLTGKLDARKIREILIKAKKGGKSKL

Compound: O=C(O)c1ccc(CN2C(=O)CSC2=S)cc1
- EC50 [1]: 0.153 µM (active)
- EC50 [2]: > 150 µM (inactive)

Compound: O=C1/C(=C\c2ccccc2)C2OCC=C3CN4CCC56c7ccccc7N1C5C2C3CC46 (stereo not drawn)
- EC50 [3]: 19.4 µM (active)
- EC50 [4]: 15.3 µM (active)
- EC50 [5]: > 75 µM (inconclusive)
- EC50 [6]: > 150 µM (not active)

Compound: O=c1c2ccccc2c(-c2ccc(O)cc2)nn1-c1cccc(C(F)(F)F)c1
- EC50 [7]: > 120 µM (not active)
- EC50 [8]: > 120 µM (not active)
- EC50 [9]: 16.6 µM (active)

Compound: OCCCNc1nc(-c2ccc(Cl)cc2)nnc1-c1ccc(Br)cc1
- IC50 [10]: 3.09 µM (not active)

Compound: CCOC(=O)c1cc(-c2ccccc2)sc1NC(=O)C(C)OC(=O)c1cccnc1OCC (stereo not drawn)
- EC50 [11]: > 112 µM (not active)
- EC50 [12]: > 112 µM (not active)

Compound: O=[N+]([O-])c1cccc(N/N=C/c2ccc(N3CCOCC3)cc2)c1
- EC50 [13]: 13.1 µM (active)
- EC50 [14]: 46.8 µM (active)

Compound: CCN(CC)CCCCNc1ncc2cc(-c3cc(OC)cc(OC)c3)c(NC(=O)NC(C)(C)C)nc2n1 [PD-173074]
- EC50 [7]: 12.8 µM (active)
- EC50 [8]: 9.24 µM (active)
- EC50 [9]: > 120 µM (not active)

Compound: CC(C)OC(=O)c1cn(-c2ccccc2)nc1-c1ccc2c(c1)OCCO2
- IC50 [10]: 39.3 µM (not active)

Compound: COc1ccc(NC(=S)N2CCN(CCN3C(=O)c4cccc5cccc(c45)C3=O)CC2)cc1
- IC50 [10]: 24.2 µM (not active)

Compound: Cc1ccc(C(=O)NC(=O)OCCn2c(C)cnc2[N+](=O)[O-])cc1
- EC50 [1]: > 38 µM (not active)
- EC50 [2]: > 160 µM (inconclusive)

Compound: O=C(O)c1ccc2c(=O)n3c(nc2c1)/C(=C/c1ccc(C(F)(F)F)cc1)CC3
- EC50 [3]: > 150 µM (not active)
- EC50 [4]: > 150 µM (not active)
- EC50 [5]: > 150 µM (inconclusive)
- EC50 [6]: > 150 µM (not active)

Compound: Cc1cc(Nc2cccc(Cl)c2Cl)n2ncnc2n1
- EC50 [1]: 0.769 µM (active)
- EC50 [2]: > 150 µM (inactive)

Compound: CCOC(=O)c1sc(N(Cc2ccccc2)C(=O)CCl)nc1C
- EC50 [3]: 1.77 µM (active)
- EC50 [15]: 0.79 µM (active)
- EC50 [4]: 4.97 µM (inconclusive)
- EC50 [5]: 8.8 µM (active)
- AC50 [16]: 2.6 µM (active)
- EC50 [6]: 11.9 µM (active)

Compound: Cc1c(OC(C)C(=O)NCc2ccccn2)ccc2c3c(c(=O)oc12)CCCC3 (stereo not drawn)
- EC50 [11]: > 112 µM (not active)
- EC50 [12]: > 112 µM (not active)

Compound: O=C(N/N=C/c1ccc(Cl)c([N+](=O)[O-])c1)C1CC1
- IC50 [10]: 34.8 µM (not active)

Compound: O=C(c1cc(-c2ccccc2)[nH]n1)N1CCc2c([nH]c3ccccc23)C1c1ccccn1 (stereo not drawn)
- EC50 [17]: 20.4 µM (active)
- EC50 [1]: 0.718 µM (active)
- EC50 [18]: 10.3 µM (active)
- EC50 [2]: > 160 µM (inactive)

Compound: CCCCNC(=O)c1ccc(N2CCC3(CC2)OCCO3)c([N+](=O)[O-])c1
- EC50 [11]: > 112 µM (not active)
- EC50 [12]: > 112 µM (not active)

Compound: COC(=O)c1sccc1NC(=O)Nc1ccc(OC)c(OC)c1
- EC50 [11]: 2.36 µM (active)
- EC50 [12]: 9.25 µM (active)

Compound: COc1cc(NC(=O)c2ccccc2NS(=O)(=O)c2ccc(Cl)s2)cc(OC)c1
- AC50 [19]: 5.95 µM (active)
- EC50 [1]: 4.13 µM (active)
- EC50 [2]: 14.5 µM (active)

Compound: O=C1CCN(N=Nc2cccc(Cl)c2)N1
- EC50 [11]: > 112 µM (not active)
- EC50 [15]: 15.4 µM (active)
- EC50 [12]: > 112 µM (not active)
- AC50 [16]: 40.7 µM (active)

Compound: COc1cccc(N/C=C/C(=O)c2ccc(OC)c(OC)c2)c1
- EC50 [11]: 14.2 µM (active)
- EC50 [12]: 22.8 µM (active)

Compound: COC(=O)c1sc(NC(=O)c2ccoc2C)nc1C
- EC50 [11]: 2.44 µM (active)
- EC50 [12]: 5.71 µM (active)

Compound: CC(=O)N(C)c1ccc(NC(=O)Nc2ccc(C)cc2)cc1
- IC50 [10]: 0.673 µM (not active)

Compound: O=[N+]([O-])/C=C/c1c(OCc2ccccc2)ccc2ccccc12
- EC50 [3]: 2.3 µM (inconclusive)
- EC50 [17]: 4.18 µM (active)
- EC50 [20]: 1.2 µM (active)
- EC50 [4]: 3.7 µM (active)
- EC50 [5]: 3.63 µM (inconclusive)
- EC50 [18]: 1.49 µM (active)
- EC50 [6]: 90.6 µM (inconclusive)
